Measurements from PMC5557545 (PLoS ONE, 2017).

Columns and labels:
[1] = test system: endonuclease from detergent disrupted viral particles; parameters: method as in PMID 7695269; details: cited from earlier work
[2] = target: influenza A polymerase acidic protein (PA), full length, N-terminal 3x FLAG tag (influenza A virus H1N1 strain A/PR/8) (UniProt P03433); test: AUC
[3] = test system: influenza virus transcription; details: cited from earlier work

For `O=C(O)C(=O)CC(=O)c1ccc(-c2ccccc2)cc1` [Compound A, 4-([1,1'-biphenyl]-4-yl)-2,4-dioxobutanoic acid], the IC50 [1] is listed as 3700 nM.

For “influenza A polymerase acidic protein (PA), full length, N-terminal 3x FLAG tag (from UniProt P03433 1-716) (natural protein)”, the percent dimer [2] was 10%.

In the case of `O=C(O)C(=O)CC(=O)C1(Cc2ccc(Cl)cc2)CCN(Cc2ccc(Cl)cc2)CC1` [Compound B, 4-(1,4-bis(4-chlorobenzyl)piperidin-4-yl)-2,4-dioxobutanoic acid], the IC50 [3] is listed as 1100 nM.
